Experimental data published in patent US20230129034A1, “TREATMENT OF DISEASE WITH ESTERS OF SELECTIVE RXR AGONISTS” (Io Therapeutics, Inc., priority 2017, published 2023).

What was measured:
[1] = test system: demyelination in C57BL/6J mice; assay: Cuprizone/rapamycin (CR) chronic 12-week mouse model of toxic demyelination; assay type: in vivo; details: 12 weeks CR; for # of Myelinated Axons per CC unit (PPD staining, corpus callosum) / % Area of Myelin Cortex (PLP staining) / % Area of Myelin Hippocampus (PLP staining): then 10 mg/kg/d PO daily for 6 weeks, with or without 20 ng/g thyroxine SC
Protocol: Mice are fed a cuprizone-containing diet and injected with rapamycin daily (CR regimen) for 12 weeks to induce demyelination. One group of animals is sacrificed at 12 weeks to evaluate demyelination. […] At the end of the study, all mice are sacrificed and one or more of the following parameters are determined: (1) PPD (p-phenylenediamine) staining to visualize and quantify myelinated axons in corpus callosum to assess demyelination and remyelination in white matter; (2) myelin proteolipid protein (PLP) immunostaining to visualize and quantify myelin in hippocampus to assess demyelination and remyelination in grey matter (hippocampus); (3) PLP immunostaining to visualize and quantify myelin in cortex to assess demyelination and remyelination in grey matter (cortex); (4) PDGFRα immunostaining to visualize and quantify OPCs in corpus callosum; (5) GSTpi immunostaining to visualize and quantify oligodendrocytes in corpus callosum; (6) Iba1 (ionized calcium-binding adapter molecule 1) and/or Mac-2 (galectin-3) immunostaining to visualize and quantify total and activated microglia in corpus callosum; (7) GFAP (glial fibrillary acidic protein) immunostaining to visualize and quantify astrocytes in corpus callosum To assess astroglial activation; and (8) 3D-electron microscopy in corpus callosum to assess ratio of myelinated and non-myelinated axons, internodal length, G-ratio, mitochondrial changes, etc.
The animals (8 week-old male C57BL/6J mice) are subjected to cuprizone diet plus rapamycin injections (CR) for 12 weeks to induce demyelination in white matter (CC, corpus callosum). After 12 weeks, CR is discontinued and subsets of animals are treated daily for 6 weeks with one of the following treatment regimens:
All animals are sacrificed after 12 weeks of CR (Group 7) or after further 6 weeks of treatment (Groups 1-6) to evaluate myelin in white matter (corpus callosum) and gray matter (hippocampus and cortex). In addition, the size of myelinated axons are quantified and the large myelinated axons are further assessed by 3D-electron microscopy (3D-EM).
A total of 92 mice are included in the study. Eight week-old male C57BL/6J mice are placed on a rodent chow (Harlan) containing 0.3% cuprizone for 12 weeks. These mice are also injected with rapamycin (approximately 10 mg/kg body weight at the volume of 0.1 ml, IP) daily for 12 weeks. Eight mice are maintained on a normal diet. The weight of the animals is monitored on a weekly-basis.
The drug is reconstituted in vehicle (DMSO/PBS/Tween) and fresh drug is made up once a week and administered orally once daily. […] Similarly, subgroups (n=12) of CR treated mice are treated with oral IRX4204EE and subcutaneous thyroxine vehicle (Group 5) or oral IRX4204EE and subcutaneous thyroxine (Group 6) at the indicated doses.
Epon-PPD stained sections of corpus callosum are evaluated in bright field at 10X, 20X and 63X (oil objective). A total of 4 images (63X) per animal are collected in the region of interest (ROI), which is a specific region between the rostral corpus callosum and the junction of the fornix. The images outside the ROI are not scored. The images are then evaluated using NIH ImageJ (aka. Fiji) to identify and count myelinated axons in the region of interest. The numbers of PPD-stained myelinated axons in all of the counting boxes for each image are counted. Using the polygon selection tool, the margins of the corpus callosum in each slice are identified and ImageJ is then used to calculate the total area of the CC in that slice. The total number of myelinated axons in a specific area of the corpus callosum is then calculated by dividing the total area of the CC by the total area of the counting boxes and multiplying by the combined number of myelinated axons that are counted in all of the counting boxes for each image. […]

[2] = test system: demyelinated caudal cerebellar peduncles of one year old rats; assay: Focal toxin (ethidium bromide) induced rat model of demyelination; assay type: in vivo
Protocol: The experiment uses rats of relatively advanced age (1 year) since such rats undergo remyelination in a less efficient manner, thereby providing data that are more relevant to the clinical treatment of human patients with multiple sclerosis or other demyelination disorders.
Focal demyelination is induced in one year old rats (approximately 300 g in weight) by injecting stereotactically 5 µl of ethidium bromide solution (0.01% vol/vol in saline) in a bilateral manner into the caudal cerebellar peduncles (CCP). […] The rats are killed on day 24 post-ethidium bromide treatment for analysis of remyelination by quantitative polymerase chain reaction (qPCR) and microscopy.

Nurr1/RXR heterodimer = target: T1, Nurr1/RXR heterodimer (Homo sapiens, UniProt P19793); assay: Nurr1/RXR transactivation assay, COS7 cells, 3xNBRE-tk-luc; assay type: cell-based; details: for activation of the Nurr1/RXR heterodimer: COS7 cells, 20 hr
T1 construct: full length Nurr-1 with or without full-length RXRα plasmid; expressed in transfected cells; host or cells: COS7
T1 sequence (P19793 whole entry): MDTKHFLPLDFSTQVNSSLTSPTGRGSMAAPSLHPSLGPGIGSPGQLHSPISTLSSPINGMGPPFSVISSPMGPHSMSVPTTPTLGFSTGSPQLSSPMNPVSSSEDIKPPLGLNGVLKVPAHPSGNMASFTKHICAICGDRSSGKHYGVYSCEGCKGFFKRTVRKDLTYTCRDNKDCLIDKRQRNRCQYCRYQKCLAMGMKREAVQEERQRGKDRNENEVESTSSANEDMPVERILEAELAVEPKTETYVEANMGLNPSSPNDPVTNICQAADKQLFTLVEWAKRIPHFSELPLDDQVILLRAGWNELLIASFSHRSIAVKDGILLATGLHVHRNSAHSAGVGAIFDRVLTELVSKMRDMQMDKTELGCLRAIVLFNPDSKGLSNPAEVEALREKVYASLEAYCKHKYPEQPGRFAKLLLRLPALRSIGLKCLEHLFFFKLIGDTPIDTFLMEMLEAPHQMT
T1 sequence (P43354 whole entry partner): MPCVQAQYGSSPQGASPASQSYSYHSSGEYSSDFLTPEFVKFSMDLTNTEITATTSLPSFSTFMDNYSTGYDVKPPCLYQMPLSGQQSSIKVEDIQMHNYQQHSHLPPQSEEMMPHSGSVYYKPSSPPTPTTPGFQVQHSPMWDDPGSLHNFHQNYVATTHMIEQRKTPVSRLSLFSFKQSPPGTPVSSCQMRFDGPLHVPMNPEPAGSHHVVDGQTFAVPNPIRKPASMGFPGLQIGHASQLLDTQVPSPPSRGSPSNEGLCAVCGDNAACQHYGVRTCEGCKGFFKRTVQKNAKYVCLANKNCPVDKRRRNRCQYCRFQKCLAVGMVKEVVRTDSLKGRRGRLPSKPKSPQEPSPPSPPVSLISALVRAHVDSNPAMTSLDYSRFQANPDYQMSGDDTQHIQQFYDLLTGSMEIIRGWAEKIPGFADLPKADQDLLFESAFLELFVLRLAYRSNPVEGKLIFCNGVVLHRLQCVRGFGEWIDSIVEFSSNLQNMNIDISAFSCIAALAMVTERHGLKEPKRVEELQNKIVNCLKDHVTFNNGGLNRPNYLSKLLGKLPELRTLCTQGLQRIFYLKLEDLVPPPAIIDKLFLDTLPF
Text: For PPARy: CV-1 cells were transfected with 3x(rAOX/DR1)-tk-Luc reporter gene and an expression vector for PPARy. For FXR:CV-1 cells were transfected with 3x(IBABP/IRI)-tk-Luc reporter gene and vectors for FXR and RXRα. For LXR:CV-1 cells were transfected with 3x(PLTP/LXRE)-tk-Luc reporter gene with vectors for LXRα or LXRβ. For Nurr1: COS7 cells were transfected with 3xNBRE-tk-luc reporter gene and full length Nurr-1 with or without full-length RXRα plasmid. […] Luciferase data were normalized to co-transfected β-gal activity. Luciferase activity was expressed as percent of maximal activity obtained using specific agonists. Rosiglitazone (PPARy), GW4064 (FXR), T0901317 (LXR).

RARα = target: T2, RARα (Homo sapiens, UniProt P10276); assay: RAR transactivation assay (ER-RAR fusion, ERE-tk-Luc reporter, CV-1 cells); assay type: cell-based
T2 construct: expressed in transfected cells; host or cells: CV-1
T2 sequence (P10276 183-417 limits assumed, species assumed): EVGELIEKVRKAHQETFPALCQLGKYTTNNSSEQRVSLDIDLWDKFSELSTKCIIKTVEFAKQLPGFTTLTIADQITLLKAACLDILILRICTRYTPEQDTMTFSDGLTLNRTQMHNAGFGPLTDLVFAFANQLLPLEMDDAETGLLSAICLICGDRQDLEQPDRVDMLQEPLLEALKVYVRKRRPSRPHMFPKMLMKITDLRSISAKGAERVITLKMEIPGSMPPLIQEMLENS
Text: Data are mean values ± SE from five independent experiments.

[3] = test system: CNS infiltrating leukocytes in C57BL/6 (B6) mice; assay: CNS infiltrating cells in EAE B6 mice (flow cytometry, day 20); assay type: in vivo; details: day 20 after immunization
Protocol: To determine whether a RXR agonist can reduce central nervous system (CNS) infiltrating cells, C57BL/6 (B6) mice were treated as described in Example 6. On day 20 after immunization, mice were sacrificed and perfused with phosphate buffered saline (PBS). Brain and spinal cord tissue was isolated, digested with DNase and LIBERASE DL® (Roche Diagnostics, Indianapolis, IN) for 30 minutes, and homogenized through 70 micron nylon mesh filters. Resulting cells were placed over a Percoll gradient to remove myelin. The remaining cells (microglia and CNS infiltrating cells) were counted, stained for molecules of interest, and run on a flow cytometer. Based on the frequencies obtained by FACS of these cell populations, total cell numbers of CNS infiltrating leukocytes expressing CD45, including CD4^+ T cells and CD11c^+ CD11b^+ myeloid dendritic cells (DC), were calculated.

[4] = 10 mg/kg/day oral gavage, day 7 to day 21

Row | Structure (SMILES) | # of Myelinated Axons per CC unit (PPD staining, corpus callosum) [1] | % Area of Myelin Cortex (PLP staining) [1] [%] | % Area of Myelin Hippocampus (PLP staining) [1] [%] | average diameter of myelinated axons ([1]; then 6 weeks treatment) | increase in myelin volume compared to vehicles control ([1]; then 6 weeks treatment) | Mbp expression (real-time qPCR of lesion samples) [2, 4] | Nkx2.2+ oligodendrocyte precursor cells (OPCs) in lesions [2, 4] | Pdgfra expression (real-time qPCR of lesion samples) [2, 4] | density of CC1+ differentiated oligodendrocytes in lesions [2, 4] | density of Olig2+ oligodendrocyte lineage cells in lesions [2, 4] | remyelinated axons (ultrastructural analysis of CCP lesions) [2, 4] | concentration at which transactivation of the Nurr1/RXR heterodimer is apparent (Nurr1/RXR heterodimer) [pM] | concentration sufficient to achieve full activation of Nurr1/RXR (Nurr1/RXR heterodimer) [nM] | activation of the Nurr1/RXR heterodimer (Nurr1/RXR heterodimer) | EC10 with RARα (RARα) | infiltration of CD4+ cells into the CNS [3] | infiltration of CD11c+ CD11b+ cells (myeloid DC) into the CNS [3] | remyelination and neuroprotection activity relative to IRX4204 groups ([1]; then 6 weeks treatment) | activity in focal toxin rat model relative to IRX4204 (same end-points) ([2]; rat, in vivo) | EC50 (RARα; CV-1 cells, 20 hours, luciferase activity) [nM]
1 | CC(/C=C/[C@@H]1C[C@]1(C)c1ccc2c(c1)C(C)(C)CCC2(C)C)=C\C(=O)O [IRX4204, 3,7-dimethyl-6(S),7(S)-methano,7-[1,1,4,4-tetramethyl-1,2,3,4-tetrahydronaphth-7-yl]2(E),4(E) heptadienoic acid] | 1570 | 48 | 38 | approximately 0.9 µm | approximately 15% | increase in Mbp expression | increased | increase in Pdgfra expression | increased | increased | more remyelinated axons | 100 | 1 | selectively activates | about 300 nM | significant reduction | significant reduction |  |  | 
2 | CCOC(=O)/C=C(C)/C=C/[C@@H]1C[C@]1(C)c1ccc2c(c1)C(C)(C)CCC2(C)C [IRX4204EE, 3,7-dimethyl-6(S),7(S)-methano,7-[1,1,4,4-tetramethyl-1,2,3,4-tetrahydronaphth-7-yl]2(E),4(E) heptadienoic ethyl ester] | 4300 | 85 | 68 |  | approximately 25% |  |  |  |  |  |  |  |  | very little activity |  | even greater reduction | even greater reduction | greater remyelination and neuroprotection activity than the corresponding IRX4204 treated groups | somewhat more active than the free acid | > 1000
